Laboratory results from US20130131161A1, “METHODS AND COMPOSITIONS FOR CARDIOVASCULAR DISEASES AND CONDITIONS” (priority 2009, published 2013).
Several values for one entry are separate records, joined by “and”; a condition that tells them apart may be missing. Identical values can stand only once.

Tested on: Human umbilical vein endothelial cells (HUVECs)
Assay: eNOS activity analysis: NO, ONOO− and NO/ONOO− release from HUVECs of 50 genotyped donors in response to LA-419 (Example 2)
Type: cell-based
Settings: for Fold difference NO/ONOO− (mean ± sd) / Fold difference ONOO− (mean ± sd) / Fold difference NO (mean ± sd): Caucasian, (LA-419 5 μM)/(control); for % Change NO (mean ± sd) / % Change NO/ONOO− (mean ± sd) / % Change ONOO− (mean ± sd): LA-419 1 μM vs control
Method: Concurrent measurements of NO and ONOO^− were carried out with tandem electrochemical nanosensors combined into one working unit with a total diameter of 200-500 nm (FIG. 1). Their design was based on previously developed and well-characterized chemically modified carbon-fiber technology (Malinski and Taha, 1992; Lvovich and Scheeline, 1997). Each of the nanosensors was made by depositing a sensing material on the tip of a carbon fiber (length 4-5 μm, diameter 0.2-0.5 μm). The fibers were sealed with nonconductive epoxy and electrically connected to copper wires with conductive silver epoxy. A conductive film of polymeric nickel (II) tetrakis(3-methoxy-4-hydroxyphenyl)porphyrin for the NO-sensor and polymeric film of Mn (III) [2.2]paracyclophanylporphyrin was used for the ONOO^−-sensor.
A module of NO/ONOO^− nanosensors (diameter 1-2 μm) with a platinum wire (0.1 mm) counter electrode and saturated calomel reference electrode (SCE) were applied. Differential pulse voltammetry (DPV) and amperometry were performed with a computer-based Gamry VFP600 multichannel potentiostat. DPV was used to measure the basal NO and ONOO^− concentrations, and amperometry was used to measure changes in NO and ONOO^− concentrations from its basal level with time. The DPV current at the peak potential characteristic for NO oxidation (0.65 V) and ONOO^− reduction (−0.45 V) was directly proportional to the local concentrations of these compounds in the immediate vicinity of the sensor. Linear calibration curves (current vs. concentration) were constructed for each sensor from 10 nM to 3 μM before and after measurements with aliquots of NO and ONOO^− standard solutions, respectively. The detection limit of the sensors was 1.0 nM.
The quantification of each analyte (concentration in nM) was performed using a maximum current from amperograms and standard calibration curves. A reproducibility of measurements with nanosensors is relatively high (between 5-12%). […] The sensors were slowly raised 5±2 μm from the surface of a single endothelial cell. The eNOS agonist, calcium ionophore A23187 (CaI) as well as the different drugs were then added to the surrounding media at the cell surface with a nanoinjector that was also positioned by a computer controlled-micromanipulator.
This example describes the genotype-specific response of the three major eNOS variants to 1 μM and 5 μM concentrations of LA-419. The three major genetic polymorphisms studied were the Glu298Asp variant (E298D or 894G→T) in exon 7 of […], the −786T→C variant in the promoter region, and the intron 4 polymorphism (VNTR). All of these variants have possible effects on the cardiovascular system and endothelial dysfunction. For this study, human umbilical vein endothelial cells (HUVECs) from 50 donors between 18 and 32 years of age were used.
For the analysis several analysis techniques were employed. First, the effect of genotype on NO and ONOO^− release was explored within the different concentrations of LA-419 (control, 1 μM, 5 μM), calculated as the average peak release (nmols/L) of NO, ONOO^−, and NO/ONOO^−. The effect of genotype on the net increase in NO, ONOO^−, and NO/ONOO^− for LA-419 (1 μM and 5 μM) as compared to control was also measured. In addition, an analysis was done on the effect of genotype on the % change in NO, ONOO^−, and NO/ONOO^− production for LA-419 (1 μM and 5 μM), calculated as:
% Change=[(avg. LA-419−avg. control)/(avg. control)]*100
Finally, an evaluation was undertaken concerning the effect of genotype on the production of NO, ONOO^−, and NO/ONOO^− as the fold difference of control for LA-419 (1 μM and 5 μM), calculated as:
Fold Difference=(avg. LA-419)/(avg. control)
Within each calculation technique the results were compared for statistical significance using a non-parametric ANOVA Kruskal-Wallace test or a non-parametric Mann-Whitney U test. Statistical significance was set at a p-value <0.05 in a two-tailed distribution. […]

[1] = HUVEC donor Race Caucasian/Black

Q: Which results are given for `CC(=O)SC1COC2C(O[N+](=O)[O-])COC12` (stereo not drawn) [LA-419, S-(6-Nitro-oxi-hexahydro-furo[3,2-b]furan-3-1-il)thioacetate]?
A: Fold difference NO/ONOO− (mean ± sd) (G894T G/G, n=10): 1.47 (0.12); Fold difference ONOO− (mean ± sd) (G894T G/G, n=10): 0.81 (0.04); Fold difference NO (mean ± sd) (G894T G/T & T/T, n=16): 1.11 (0.05); Fold difference NO/ONOO− (mean ± sd) (G894T G/T & T/T, n=16): 1.35 (0.10); Fold difference ONOO− (mean ± sd) (G894T G/T & T/T, n=16): 0.83 (0.07); Fold difference NO (mean ± sd) (G894T G/T, n=13): 1.12 (0.05); Fold difference NO/ONOO− (mean ± sd) (G894T G/T, n=13): 1.34 (0.09); Fold difference ONOO− (mean ± sd) (G894T G/T, n=13): 0.83 (0.06); Fold difference NO (mean ± sd) (G894T T/T, n=3): 1.11 (0.07); Fold difference NO/ONOO− (mean ± sd) (G894T T/T, n=3): 1.39 (0.17); Fold difference ONOO− (mean ± sd) (G894T T/T, n=3): 0.80 (0.12); Fold difference NO (mean ± sd) (Intron 4 b/a & a/a, n=6): 1.16 (0.06); Fold difference NO/ONOO− (mean ± sd) (Intron 4 b/a & a/a, n=6): 1.39 (0.11); Fold difference ONOO− (mean ± sd) (Intron 4 b/a & a/a, n=6): 0.83 (0.05); Fold difference NO (mean ± sd) (Intron 4 b/a, n=5): 1.16 (0.06); Fold difference NO/ONOO− (mean ± sd) (Intron 4 b/a, n=5): 1.39 (0.12); Fold difference ONOO− (mean ± sd) (Intron 4 b/a, n=5): 0.83 (0.05); Fold difference NO (mean ± sd) (Intron 4 b/b, n=18): 1.13 (0.07); Fold difference NO/ONOO− (mean ± sd) (Intron 4 b/b, n=18): 1.39 (0.13); Fold difference ONOO− (mean ± sd) (Intron 4 b/b, n=18): 0.82 (0.06); Fold difference NO (mean ± sd) (T-786C T/C & C/C, n=16): 1.12 (0.06); Fold difference NO/ONOO− (mean ± sd) (T-786C T/C & C/C, n=16): 1.36 (0.10); Fold difference ONOO− (mean ± sd) (T-786C T/C & C/C, n=16): 0.82 (0.06); Fold difference NO (mean ± sd) (T-786C T/C, n=15): 1.13 (0.06); Fold difference NO/ONOO− (mean ± sd) (T-786C T/C, n=15): 1.35 (0.09); Fold difference ONOO− (mean ± sd) (T-786C T/C, n=15): 0.83 (0.04); Fold difference NO (mean ± sd) (T-786C T/T, n=10): 1.17 (0.08); Fold difference NO/ONOO− (mean ± sd) (T-786C T/T, n=10): 1.49 (0.14) and 1.45 (0.14); Fold difference ONOO− (mean ± sd) (T-786C T/T, n=10): 0.82 (0.07); peak release of NO versus control (LA-419 1 μM (Table c1)): smaller increase; ONOO− production versus control (LA-419 1 μM (Table c2)): no apparent decrease; % Change NO (mean ± sd) [1]: 9.57 (6.43) %; % Change NO/ONOO− (mean ± sd) [1]: 3.77 (26.27) %; % Change ONOO− (mean ± sd) [1]: 9.37 (21.79) %; % Change NO (mean ± sd) (HUVEC donor Race Not Reported): 14.50 (2.19) %; % Change NO/ONOO− (mean ± sd) (HUVEC donor Race Not Reported): 37.24 (1.75) %; % Change ONOO− (mean ± sd) (HUVEC donor Race Not Reported): −16.55 (2.66) %; % Change NO (mean ± sd) (HUVEC donor alpha): −4.73 (18.81) %; % Change NO/ONOO− (mean ± sd) (HUVEC donor alpha): −8.17 (36.37) %; % Change ONOO− (mean ± sd) (HUVEC donor alpha): 16.25 (36.48) %; % Change NO (mean ± sd) (HUVEC donor beta): 21.25 (25.58) %; % Change NO/ONOO− (mean ± sd) (HUVEC donor beta): 61.80 (74.46) %; % Change ONOO− (mean ± sd) (HUVEC donor beta): −18.41 (17.30) %; % Change NO (mean ± sd) (HUVEC donor delta): 8.95 (0) %; % Change NO/ONOO− (mean ± sd) (HUVEC donor delta): 33.68 (0) %; % Change ONOO− (mean ± sd) (HUVEC donor delta): −18.50 (0) %; % Change NO (mean ± sd) (HUVEC donor gamma): 11.74 (17.99) %; % Change NO/ONOO− (mean ± sd) (HUVEC donor gamma): 26.85 (45.85) %; % Change ONOO− (mean ± sd) (HUVEC donor gamma): −6.29 (19.74) %; % Change NO (mean ± sd) (HUVECs G894T variant G/G): 7.77 (18.82) %; % Change NO/ONOO− (mean ± sd) (HUVECs G894T variant G/G): 21.83 (51.78) %; % Change ONOO− (mean ± sd) (HUVECs G894T variant G/G): −2.10 (27.33) %; % Change NO (mean ± sd) (HUVECs G894T variant G/T): 20.99 (29.98) %; % Change NO/ONOO− (mean ± sd) (HUVECs G894T variant G/T): 50.45 (77.28) %; % Change ONOO− (mean ± sd) (HUVECs G894T variant G/T): −9.58 (26.95) %; % Change NO (mean ± sd) (HUVECs G894T variant T/T): 8.69 (18.85) %; % Change NO/ONOO− (mean ± sd) (HUVECs G894T variant T/T): 61.97 (81.82) %; % Change ONOO− (mean ± sd) (HUVECs G894T variant T/T): −25.44 (21.34) %; % Change NO (mean ± sd) (HUVECs Intron 4 variant a/a): −4.57 (24.67) %; % Change NO/ONOO− (mean ± sd) (HUVECs Intron 4 variant a/a): −3.62 (44.56) %; % Change ONOO− (mean ± sd) (HUVECs Intron 4 variant a/a): 9.62 (33.98) %; % Change NO (mean ± sd) (HUVECs Intron 4 variant b/a): 20.51 (28.08) %; % Change NO/ONOO− (mean ± sd) (HUVECs Intron 4 variant b/a): 42.92 (65.15) %; % Change ONOO− (mean ± sd) (HUVECs Intron 4 variant b/a): −6.58 (30.92) %; % Change NO (mean ± sd) (HUVECs Intron 4 variant b/b): 13.46 (23.13) %; % Change NO/ONOO− (mean ± sd) (HUVECs Intron 4 variant b/b): 43.27 (71.09) %; % Change ONOO− (mean ± sd) (HUVECs Intron 4 variant b/b): −10.24 (27.17) %; % Change NO (mean ± sd) (HUVECs Intron 4 variant c/c): −26.76 (0) %; % Change NO/ONOO− (mean ± sd) (HUVECs Intron 4 variant c/c): −26.15 (0) %; % Change ONOO− (mean ± sd) (HUVECs Intron 4 variant c/c): −0.63 (0) %; % Change NO (mean ± sd) (HUVECs T-786C variant C/C): 1.91 (11.63) %; % Change NO/ONOO− (mean ± sd) (HUVECs T-786C variant C/C): 2.52 (35.64) %; % Change ONOO− (mean ± sd) (HUVECs T-786C variant C/C): 11.13 (43.85) %; % Change NO (mean ± sd) (HUVECs T-786C variant T/C): 17.70 (29.53) %; % Change NO/ONOO− (mean ± sd) (HUVECs T-786C variant T/C): 52.82 (77.96) %; % Change ONOO− (mean ± sd) (HUVECs T-786C variant T/C): −12.40 (28.22) %; % Change NO (mean ± sd) (HUVECs T-786C variant T/T): 9.48 (17.79) %; % Change NO/ONOO− (mean ± sd) (HUVECs T-786C variant T/T): 25.48 (51.97) %; % Change ONOO− (mean ± sd) (HUVECs T-786C variant T/T): −5.17 (21.75) %; % Change Ratio, % Change NO/% Change ONOO− (mean ± sd) (LA-419 1 μM, HUVEC donor Race Asian): −0.48 (0); % Change Ratio, % Change NO/% Change ONOO− (mean ± sd) (LA-419 1 μM, HUVEC donor Race Black): 2.81 (12.60); % Change Ratio, % Change NO/% Change ONOO− (mean ± sd) (LA-419 1 μM, HUVEC donor Race Not Reported): −0.90 (0.28); Net increase over control NO (mean ± sd) (LA-419 1 μM, HUVECs G894T + T-786C Combination of all genotypes other than G/G + T/T): 38.70 (72.56) nmols/L
